Test results published in US20130089627A1, “METHOD FOR TREATING A CANCER CAUSED BY CANCER STEM CELLS” (NEW BELLUS ENTERPRISES CO., LTD., priority 2011, published 2013).

Key:
[1] = tested on: Hepatoma cancer stem cells; experiment: Co-administration with chemotherapy drugs, hepatoma cancer stem cells; assay type: cell-based
Description: (§1) The definition of half maximal inhibitory concentration (IC50) is the concentration for survival rate of 50% under the reaction with drugs or compounds.
(§2) Cisplatin: cis-diammineplatinum(II) dichloride (Sigma-Aldrich, USA)
(§3) Taxol: Paclitaxel (Sigma-Aldrich, USA)
(§4) According to the pretested half maximal inhibitory concentration (IC50) of D1˜D5, different cancer stem cells were used to test the cytotoxic concentration for (1) the co-administration of A. camphorata extracts with the chemotherapy drug, Cisplatin; (2) the co-administration of A. camphorata extracts with the chemotherapy drug, Taxol.

breast cancer stem cells = experiment: Co-administration with chemotherapy drugs, breast cancer stem cells; assay type: cell-based
Description: as §1, §2, §3, §4

[2] = tested on: colorectal cancer stem cells; experiment: Co-administration with chemotherapy drugs, colorectal cancer stem cells; assay type: cell-based
Description: as §1, §2, §3, §4

[3] = tested on: Glioblastomas multiform cancer stem cells; experiment: Co-administration with chemotherapy drugs, GBM cancer stem cells; assay type: cell-based
Description: as §1, §2, §3, §4

[4] = tested on: Head and neck squamous cell carcinoma cancer stem cells; experiment: Co-administration with chemotherapy drugs, HNSCC cancer stem cells; assay type: cell-based
Description: as §1, §2, §3, §4

lung cancer stem cells = experiment: Co-administration with chemotherapy drugs, lung cancer stem cells; assay type: cell-based, human
Description: as §1, §2, §3, §4

cancer stem cells = experiment: MTT cytotoxicity tests of 4-acetyl-antroquinonol B, summary in words; assay type: cell-based; details: lung adenocarcinoma CD133 positive, oral, GBM, breast and colorectal cancer stem cells
Description: (§5) The principle of cytotoxic activity test (MTT assay) is that succinate dehydrogenase in the mitochondria of a living cell can reduce MTT (3-(4,5-dimethylthiazol-2-yl)-2,5-diphenyltetrazolium bromide), and blue-violet formazan was formed under reaction with cytochrome C. Generally, the amount of formazan generated is proportional to the activity of the mitochondria and the number of living cells. After adding dimethyl sulfoxide (DMSO) to dissolve formazan, the number of living cells can be estimated by the optical density (OD) value.

[5] = tested on: human lung cancer stem cells (Lung CSC); experiment: MTT cytotoxicity test, lung cancer stem cells; assay type: cell-based
Description: (§6) The purpose of the present invention is to screen for the A. camphorata extracts with anti-cancer activity. MTT (3-(4,5-dimethylthiazol-2-yl)-2,5-diphenyltetrazolium bromide) assay was used to complete the cytotoxicity test. Human lung cancer stem cells (lung CSC), human Adult fibroblast-1 (AF-1), glioblastoma multiforme cancer stem cells (GBM CSC), human Adult fibroblast-2 (AF-2), head and neck squamous cell carcinoma cancer stem cells (HNSCC CSC), colorectal cancer stem cells (CRC CSC), as well as breast cancer stem cells (Breast CSC), hepatoma cancer stem cells (hepatoma CSC), leukemia cancer stem cells (leukemia CSC) and gastric cancer stem cells (Gastric CSC) are used in cell experiments of the present invention.
as §5, with “value. […]” for “value.”

[6] = tested on: colorectal cancer stem cells (CRC CSC); experiment: MTT cytotoxicity test, colorectal cancer stem cells; assay type: cell-based
Description: as §6
as §5, with “value. […]” for “value.”

[7] = tested on: Glioblastomas multiform cancer stem cells (GBM CSC); experiment: MTT cytotoxicity test, GBM cancer stem cells (subline not stated); assay type: cell-based
Description: as §6
as §5, with “value. […]” for “value.”

[8] = tested on: oral cancer stem cells (Oral CSC); experiment: MTT cytotoxicity test, oral cancer stem cells; assay type: cell-based
Description: as §5, §1

[9] = tested on: breast cancer stem cells (Breast CSC); experiment: MTT cytotoxicity test, breast cancer stem cells; assay type: cell-based
Description: as §6
as §5, with “value. […]” for “value.”

[10] = tested on: Lung adenocarcinoma CD133 positive cancer stem cells; experiment: MTT cytotoxicity test, lung adenocarcinoma CD133 positive cancer stem cells; assay type: cell-based
Description: as §5, §1

## CC(=O)O[C@H]1C(=O)[C@@]2(C)[C@H]([C@H](OC(=O)c3ccccc3)[C@]3(O)C[C@H](OC(=O)[C@H](O)[C@@H](NC(=O)c4ccccc4)c4ccccc4)C(C)=C1C3(C)C)[C@]1(OC(C)=O)CO[C@@H]1C[C@@H]2O [Taxol, Paclitaxel]
[1]; read-out: Taxol IC50
  IC50: 0.0335 µg/mL
Breast cancer stem cells; read-out: Taxol IC50
  IC50: 0.00983 µg/mL
[2]; read-out: Taxol IC50
  IC50: 0.0317 µg/mL
[3]; read-out: Taxol IC50
  IC50: 0.0207 µg/mL
[4]; read-out: Taxol IC50
  IC50: 0.0102 µg/mL
Lung cancer stem cells; Homo sapiens, read-out: Taxol IC50
  IC50: 0.0137 µg/mL

## COC1=C(OC)C(OC(C)=O)C(C/C=C(\C)CCC2(C)CCC(=O)O2)C(C)C1=O (stereo not shown) [4-acetyl-antroquinonol B]
Cancer stem cells
  inhibitory effects on the growth of cancer stem cells (in words): effective inhibitory effects on the growth of cancer stem cells
[5]
  half maximal inhibitory concentration (IC50) of 4-acetyl-antroquinonol B: 12.37 µg/mL
[6]
  half maximal inhibitory concentration (IC50) of 4-acetyl-antroquinonol B: 9.72 µg/mL
[7]
  half maximal inhibitory concentration (IC50) of 4-acetyl-antroquinonol B: 18.2 µg/mL
[8]
  half maximal inhibitory concentration (IC50) of 4-acetyl-antroquinonol B: 14.37 µg/mL
[9]
  half maximal inhibitory concentration (IC50) of 4-acetyl-antroquinonol B: 20.77 µg/mL
[10]
  half maximal inhibitory concentration (IC50) of 4-acetyl-antroquinonol B: 16.4 µg/mL

## N.N.[Cl][Pt][Cl] [Cisplatin, cis-diammineplatinum(II) dichloride]
[1]
  Cisplatin IC50: 40.15 µg/mL
Breast cancer stem cells
  Cisplatin IC50: 20.23 µg/mL
[2]
  Cisplatin IC50: 42.83 µg/mL
[3]
  Cisplatin IC50: 23.33 µg/mL
[4]
  Cisplatin IC50: 18.87 µg/mL
Lung cancer stem cells
  Cisplatin IC50: 17.98 µg/mL
